Results on four molecules are retold here after ChEMBL document CHEMBL1142640, “New natural product isolation and comparison of the secondary metabolite content of three distinct samples of the sea hare Aplysia dactylomela from tenerife” (J Nat Prod, 2000).

In one series the test system is Mycobacterium avium. Put plainly: Antitubercular activity against Mycobacterium avium. Format: functional.
Another series relates to Caenorhabditis elegans. As to the kind of experiment: Nematicidal activity against Caenorhabditis elegans. In kind it is functional, organism-based.
Series [1] concerns the target Human immunodeficiency virus type 1 reverse transcriptase (Human immunodeficiency virus 1) (UniProt Q72547). Put plainly: Inhibition of HIV1 reverse transcriptase.
The target of series [2] is Tyrosine-protein kinase Lck (Homo sapiens) (UniProt P06239). Put plainly: Inhibition of p56lck.
Sequence of Tyrosine-protein kinase Lck (Homo sapiens) (P06239 2-509 limits assumed): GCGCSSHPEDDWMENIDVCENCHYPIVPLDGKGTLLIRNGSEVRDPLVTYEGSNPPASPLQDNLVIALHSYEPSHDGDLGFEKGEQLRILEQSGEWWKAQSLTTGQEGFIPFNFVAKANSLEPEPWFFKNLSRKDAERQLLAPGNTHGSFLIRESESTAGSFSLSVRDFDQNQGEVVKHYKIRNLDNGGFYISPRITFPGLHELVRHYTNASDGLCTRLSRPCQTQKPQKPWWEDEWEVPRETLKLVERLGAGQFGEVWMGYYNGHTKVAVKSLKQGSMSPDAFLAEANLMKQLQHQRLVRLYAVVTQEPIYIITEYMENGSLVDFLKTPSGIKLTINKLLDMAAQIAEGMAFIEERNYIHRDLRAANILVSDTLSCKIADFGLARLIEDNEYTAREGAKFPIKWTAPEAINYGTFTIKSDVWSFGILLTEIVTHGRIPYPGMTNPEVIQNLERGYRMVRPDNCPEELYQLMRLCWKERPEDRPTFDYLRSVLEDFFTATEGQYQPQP
The subject of series [3] is Priestia megaterium. As to the kind of experiment: Antibacterial activity against Bacillus megaterium at 50 ug/disk. In kind it is functional.
The next series relates to Escherichia coli. As to the kind of experiment: Antibacterial activity against Escherichia coli at 50 ug/disk. In kind it is functional.
The subject of series [4] is Microbotryum violaceum. As to the kind of experiment: Antifungal activity against Microbotryum violaceae assessed as no colonies of test organism growing within inhibition zone at 50 ug/disk. Format: functional. To be noted: read-out: IZ.
For series [5], the system named is [Chlorella] fusca. Put plainly: Antialgal activity against Chlorella fusca assessed as no colonies of test organism growing within inhibition zone at 50 ug/disk. The settings on record: Scenedesmus fuscus; read-out: IZ. Format: functional.
Series [6] concerns [Chlorella] fusca. As to the kind of experiment: Antialgal activity against Chlorella fusca. Format: functional, Scenedesmus fuscus.
Series [7] is described as follows: (§1) Toxicity in Artemia salina at 0.5 mg/mL after 48 hrs. In kind it is organism-based. The settings on record: in vivo, read-out: Activity.
For series [8], the system named is Mycobacterium tuberculosis. Put plainly: Antitubercular activity against Mycobacterium tuberculosis. In kind it is functional.
The subject of another series is Lu1. Put plainly: Cytotoxicity against human Lu1 cells. In kind it is functional, cell-based.
In the next series the test system is KB. As to the kind of experiment: Cytotoxicity against human KB cells. In kind it is functional, cell-based.
A further series deals with ZR-75-1. As to the kind of experiment: Cytotoxicity against human ZR-75-1 cells. In kind it is functional, cell-based.
In the next series the test system is HeLa. Put plainly: Cytotoxicity against human HeLa cells. Format: functional, cell-based.
Series [9] concerns Mycotypha microspora. Put plainly: Antifungal activity against Mycotypha microspora assessed as no colonies of test organism growing within inhibition zone at 50 ug/disk. The settings on record: read-out: IZ. Format: functional.
The subject of series [10] is [Chlorella] fusca. Put plainly: Antialgal activity against Chlorella fusca assessed as few colonies of test organism growing within inhibition zone at 50 ug/disk. In kind it is functional. To be noted: Scenedesmus fuscus; read-out: IZ.
Series [11] can be described thus: Cytotoxicity against human HMO2 cells. In kind it is functional, cell-based.
The test system of another series is HepG2. Put plainly: Cytotoxicity against human HepG2 cells. In kind it is functional, cell-based.
A further series deals with MCF7. As to the kind of experiment: Cytotoxicity against human MCF7 cells. In kind it is functional, cell-based.
For the next series, the system named is A549. As to the kind of experiment: Cytotoxicity against human A549 cells. In kind it is functional, cell-based.
The next series relates to HT-29. As to the kind of experiment: Cytotoxicity against human HT29 cells. In kind it is functional, cell-based.
Series [12] in a line: Cytotoxicity against human MEL28 cells. To be noted: SK-MEL-28. Format: functional, cell-based.
The next series has as its system P388. Put plainly: Cytotoxicity against mouse P388 cells. In kind it is functional, cell-based.
Series [13] relates to Microbotryum violaceum. As to the kind of experiment: Antifungal activity against Microbotryum violaceae at 50 ug/disk. Format: functional.
The test system of series [14] is Aspergillus pseudoglaucus. Put plainly: Antifungal activity against Eurotium repens at 50 ug/disk. In kind it is functional.
In series [15] the test system is Fusarium oxysporum. Put plainly: Antifungal activity against Fusarium oxysporum at 50 ug/disk. In kind it is functional.
Series [16] has as its system Mycotypha microspora. Put plainly: Antifungal activity against Mycotypha microspora at 50 ug/disk. In kind it is functional.
Series [17] has as its system [Chlorella] fusca. Put plainly: Antialgal activity against Chlorella fusca at 50 ug/disk. Format: functional. To be noted: Scenedesmus fuscus.
A further series relates to Artemia salina. The description is as §1. In kind it is organism-based. To be noted: in vivo, 48 h.
The subject of series [18] is Priestia megaterium. Put plainly: Antibacterial activity against Bacillus megaterium assessed as no colonies of test organism growing within inhibition zone at 50 ug/disk. To be noted: read-out: IZ. In kind it is functional.
For series [19], the system named is Aspergillus pseudoglaucus. Put plainly: Antifungal activity against Eurotium repens assessed as few colonies of test organism growing within inhibition zone at 50 ug/disk. In kind it is functional. To be noted: read-out: IZ.
Series [20] deals with Fusarium oxysporum. Put plainly: Antifungal activity against Fusarium oxysporum assessed as few colonies of test organism growing within inhibition zone at 50 ug/disk. Format: functional. To be noted: read-out: IZ.
Series [21] relates to Mycotypha microspora. Put plainly: Antifungal activity against Mycotypha microspora assessed as few colonies of test organism growing within inhibition zone at 50 ug/disk. Format: functional. The settings on record: read-out: IZ.
Series [22] can be described thus: Toxicity in Artemia salina at 0.5 mg/mL after 24 hrs. The settings on record: in vivo, read-out: Activity. In kind it is organism-based.
The nature of series [23]: Cytotoxicity against rat L6 cells. Format: cell-based. To be noted: read-out: MIC.
A further series deals with Trypanosoma cruzi. Put plainly: Antitrypanosomal activity against Trypanosoma cruzi. Format: functional, organism-based.

SMILES strings stand for the structures. In brackets after ≈: the same amount, converted by molar mass. Activity calls are given as the source filed them. No cut-off for these calls is given here. Some results are limits rather than exact numbers.

Turning to `C[C@]1(/C=C/Cl)C[C@](Cl)(CBr)[C@@H](Br)C[C@H]1Cl`, the MIC was determined as 34 µg/mL (≈ 85.1 µM) against Mycobacterium avium, 7 µg in series [Chlorella] fusca [6] and 32 µg/mL (≈ 80.1 µM) in [8]. Also, in the series on Caenorhabditis elegans, the result was Active. The outcome (in series [1]; in series [2]; in the series on Priestia megaterium [3]; in the series on Escherichia coli) was inactive. Besides, the values for the zone of inhibition at 50 µg/disc (in the series with Microbotryum violaceum [4]; in series [Chlorella] fusca [5]) were 2 mm and 16 mm, respectively. In addition, the mortality at 48 h, 0.5 mg/mL in [7] is 100%. The IC50 (usually the concentration at which inhibition is half-maximal) came out at 12.9 µg/mL (≈ 32.3 µM) in the series with Lu1, 13.3 µg/mL (≈ 33.3 µM) in the series with KB and 7.8 µg/mL (≈ 19.5 µM) with ZR-75-1.

`C=C1C[C@@H](O)[C@@H](Br)C(C)(C)[C@]12CC[C@@](C)(Br)[C@H](Cl)C2` [OBTUSOL]: the outcome in the series on Caenorhabditis elegans was Active. Moreover, the result (in series [1]; in series [2]; with Priestia megaterium [3]; in the series with Escherichia coli) was inactive. Besides, the IC50 in the series with HeLa was 50 µg/mL (≈ 121 µM); in series [11], 7 µg/mL (≈ 16.9 µM); in the series with HepG2, under 1 µg/mL; in the series on MCF7 it was 1.5 µg/mL (≈ 3.62 µM); in the series on Lu1, over 25 µg/mL; with KB, over 25 µg/mL. Further, the 50% inhibitory concentration (IC50) in the series on ZR-75-1 is over 25 µg/mL. The zone of inhibition at 50 µg/disc in the series on Mycotypha microspora [9] is 6 mm; in [Chlorella] fusca [10] it was 3 mm. Moreover, in series [7], the mortality at 48 h, 0.5 mg/mL was 80%.

For the molecule `C=C1C[C@@H](O)[C@@H](Br)C(C)(C)[C@]12CC[C@](C)(Cl)[C@@H](Br)C2` [CARTILAGINEOL], the IC50 was 1 µg/mL (≈ 2.41 µM) with A549, 0.25 µg/mL (≈ 0.603 µM) in the series with HT-29, 1 µg/mL (≈ 2.41 µM) in [12] and 5 µg/mL (≈ 12.1 µM) with P388. Also, the “inhibition zone (IZ)” value (in the series on Priestia megaterium [3]; with Escherichia coli; in the series with Microbotryum violaceum [13]; in series [14]; in the series on Fusarium oxysporum [15]; in the series on Mycotypha microspora [16]) was “inactive” in each case. For the same molecule, in series [Chlorella] fusca [17], the “inhibition zone (IZ)” value is “inactive”. For the same molecule, in the series with Artemia salina, the “inhibition zone (Toxicity)” value is reported as “Not Active”.

Consider `C=C1C[C@H](O)[C@H](Br)C(C)(C)[C@@]12CCC(C)=C(Cl)C2` [ELATOL], for which, in the series with Caenorhabditis elegans, the result was Active. Further, the result in series [1], in series [2] and in series [Chlorella] fusca [17] was inactive. Also, the IC50 was 0.1 µg/mL (≈ 0.3 µM) in the series with A549; 0.1 µg/mL (≈ 0.3 µM) with HT-29; 0.1 µg/mL (≈ 0.3 µM) in [12]; 1 µg/mL (≈ 3 µM) in the series on P388; under 1 µg/mL in series [11]; under 1 µg/mL with HepG2. The IC50 in the series on MCF7 was under 1 µg/mL; with Trypanosoma cruzi, 0.92 µg/mL (≈ 2.76 µM); in the series on Lu1 it was over 25 µg/mL; in the series on KB, over 25 µg/mL; with ZR-75-1, over 25 µg/mL. Moreover, the zone of inhibition at 50 µg/disc amounted to 2 mm in the series on Priestia megaterium [18]; 3 mm in the series with Microbotryum violaceum [4]; 25 mm in series [19]; 7 mm in the series on Fusarium oxysporum [20]; 25 mm with Mycotypha microspora [21]. The mortality at 24 h, 0.5 mg/mL in [22] stood at 100%. Besides, the MCC in series [23] was found to be 3.3 µg/mL.
